Data as given in patent publication US20180271960A1, “METHOD TO TREAT CANCER USING ARGININE DELPETOR AND ORNITHINE DECARBOXYLASE (ODC) INHIBITOR” (Bio-Cancer Treatment International Ltd., priority 2015, published 2018).

Assays:
[1] = test system: H1975 lung adenocarcinoma cell line; test: MTT assay, growth inhibition of H1975 cell line; format: cell-based; conditions: 48 h and 72 h at 0.5 ng/μl and 10 ng/μl
Procedure: (§1) The inhibition ratio (IR) and the half maximal inhibitory concentration (IC50) values are determined by a MTT assay.

[2] = test system: HCC2935 lung adenocarcinoma cell line; test: MTT assay, growth inhibition of HCC2935 cell line; format: cell-based; conditions: 72 h at 10 ng/μl only
Procedure: as §1

arginine deiminase [ADI, reference compound]
growth inhibition effect (cell proliferation) [1]: does not inhibit H1975 lung adenocarcinoma cell line proliferation
growth inhibition effect (cell proliferation / toxicity) [2]: does not inhibit HCC2935 lung adenocarcinoma cell line proliferation
